According to ChEMBL document CHEMBL5241107, “Discovery of an eIF4A Inhibitor with a Novel Mechanism of Action” (J Med Chem, 2021):
Calls of active or inactive are those of the source. No cut-off for these calls is given here.

Tests used:
[1] = target: T1, Eukaryotic initiation factor 4A-I (Homo sapiens, UniProt P60842); test: Inhibition of human recombinant N-terminal His6-tagged eIF4A expressed in Escherichia coli BL21 CodonPlus cells using ATP and yeast RNA as substrate preincubated with enzyme for 20 mins followed by susbtrate addition and measured after 4 hrs by Malachite green ATPase assay
BJAB = test: Cytotoxicity against human BJAB cells assessed as reduction in cell viability measured after 72 hrs by CellTiter-Glo luminescent assay; assay type: functional, cell-based
[2] = target: T1, Eukaryotic initiation factor 4A-I; test: Competitive inhibition of human recombinant N-terminal His6-tagged eIF4A expressed in Escherichia coli BL21 CodonPlus cells assessed as […] with constant Vmax of RNA using 250 uM ATP and varying concentration of yeast RNA as substrate preincubated with enzyme for 20 mins followed by substrate addition and measured after 1 to 7 hrs by Malachite green ATPase assay; settings: time 80-440 min
[3] = target: T1, Eukaryotic initiation factor 4A-I; test: Inhibition of helicase activity of human recombinant N-terminal His6-tagged eIF4A expressed in Escherichia coli BL21 CodonPlus cells assessed as decrease in single stranded signal using Cy3-labeled RNA strand and unlabeled DNA strand by native PAGE analysis
[4] = target: T1, Eukaryotic initiation factor 4A-I; test: Inhibition of helicase activity of human recombinant N-terminal His6-tagged eIF4A expressed in Escherichia coli BL21 CodonPlus cells assessed as increase in double stranded signal using Cy3-labeled RNA strand and unlabeled DNA strand by native PAGE analysis
[5] = target: T1, Eukaryotic initiation factor 4A-I; test: Inhibition of helicase activity of human recombinant N-terminal His6-tagged eIF4A expressed in Escherichia coli BL21 CodonPlus cells using Cy3-labeled RNA strand and unlabeled DNA strand by native PAGE analysis
[6] = target: T1, Eukaryotic initiation factor 4A-I; test: Uncompetitive inhibition of human recombinant N-terminal His6-tagged eIF4A expressed in Escherichia coli BL21 CodonPlus cells assessed as decrease in Km and Vmax of ATP using varying concentrations of ATP and 250 ug/ml yeast RNA as substrate preincubated with enzyme for 20 mins followed by substrate addition and measured after 1 to 7 hrs by Malachite green ATPase assay; settings: time 80-440 min
[7] = target: T1, Eukaryotic initiation factor 4A-I; test: Binding affinity to eIF4A in human A549 cells assessed as increase in thermal stability of the protein at 100 nM incubated for 90 mins by CETSA analysis; assay type: cell-based
Reticulocyte [8] = test: Inhibition of eIF4A in rabbit reticulocyte lysate assessed as inhibition of cap-dependent translation of firefly luciferase using bicistronic luciferase reporter [pSP/(CAG)33/FF/HCV/Ren.pA51] at 100 nM incubated for 90 mins by luciferase reporter gene based luminescence analysis; assay type: subcellular; settings: Oryctolagus cuniculus
Reticulocyte [9] = test: Inhibition of IRES-dependent translation of renilla luciferase in rabbit reticulocyte lysates using bicistronic luciferase reporter [pSP/(CAG)33/FF/HCV/Ren.pA51] at 100 nM incubated for 90 mins by luciferase reporter gene based luminescence analysis; assay type: functional, subcellular; settings: Oryctolagus cuniculus
Reticulocyte [10] = test: Inhibition of cap-dependent translation of firefly luciferase in rabbit reticulocyte lysates using bicistronic luciferase reporter [pSP/(CAG)33/FF/HCV/Ren.pA51] at 600 uM incubated for 90 mins by luciferase reporter gene based luminescence analysis; assay type: functional, subcellular; settings: Oryctolagus cuniculus
Reticulocyte [11] = test: Inhibition of IRES-dependent translation of renilla luciferase in rabbit reticulocyte lysates using bicistronic luciferase reporter [pSP/(CAG)33/FF/HCV/Ren.pA51] at 600 uM incubated for 90 mins by luciferase reporter gene based luminescence analysis; assay type: functional, subcellular; settings: Oryctolagus cuniculus
[12] = target: T1, Eukaryotic initiation factor 4A-I; test: Displacement of MANT-ATP from human recombinant N-terminal His6-tagged eIF4A expressed in Escherichia coli BL21 CodonPlus cells at 1 mM preincubated with enzyme and yeast RNA for 20 mins followed by MANT-ATP addition for 30 mins by fluorescence polarization assay; settings: time 50.0 min
[13] = Homo sapiens, BJAB, 72 h, read-out: EC50

T1 sequence (P60842 whole entry): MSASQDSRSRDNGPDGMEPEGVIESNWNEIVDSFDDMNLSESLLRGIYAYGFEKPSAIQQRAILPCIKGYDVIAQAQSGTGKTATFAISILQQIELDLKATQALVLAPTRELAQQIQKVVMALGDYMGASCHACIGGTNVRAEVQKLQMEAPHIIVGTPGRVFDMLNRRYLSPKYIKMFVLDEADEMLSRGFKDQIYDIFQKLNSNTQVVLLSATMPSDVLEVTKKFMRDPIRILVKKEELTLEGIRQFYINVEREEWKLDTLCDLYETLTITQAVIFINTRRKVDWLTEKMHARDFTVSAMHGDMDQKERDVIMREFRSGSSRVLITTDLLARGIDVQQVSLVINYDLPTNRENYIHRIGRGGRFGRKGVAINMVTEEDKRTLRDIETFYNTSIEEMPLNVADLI

Compound | IC50 [1] [µM] | other results
O=C(O)c1cc(-c2ccc(-c3ccccc3Oc3ccccc3)o2)nc2ccc([N+](=O)[O-])cc12 | 21 | –
O=C(O)c1cc(-c2ccc(-c3cccc(-c4ccccc4)c3)o2)nc2ccc([N+](=O)[O-])cc12 | 25.8 | –
CCCCc1ccc(-c2ccc(-c3cc(C(=O)O)c4ccccc4n3)o2)cc1 | > 150 | –
CCCCc1ccc(-c2ccc(-c3cc(C(=O)O)c4cc(Cl)c(Cl)cc4n3)o2)cc1 | 90.1 | –
CCCCc1ccc(-c2ccc(-c3cc(C(=O)O)c4cc(F)c(F)cc4n3)o2)cc1 | 54 | –
CCCCc1ccc(-c2ccc(-c3cc(C(=O)O)c4ccc(Br)cc4n3)o2)cc1 | 33 | –
O=C(O)c1cc(-c2ccc(-c3cccc(Oc4ccccc4)c3)o2)nc2ccc([N+](=O)[O-])cc12 | 22.2 | –
CCCOc1ccc(-c2ccc(-c3cc(C(=O)O)c4cc([N+](=O)[O-])ccc4n3)o2)cc1 | 45.7 | –
CCCCc1ccc(-c2ccc(-c3cc(C(=O)O)c4cc([N+](=O)[O-])ccc4n3)cn2)cc1 | 60 | –
CCCCc1ccc(-c2ccc(-c3cc(C(=O)O)c4cccc(Cl)c4n3)o2)cc1 | 73.3 | –
O=C(O)c1cc(-c2ccc(-c3cccc4ccccc34)o2)nc2ccc([N+](=O)[O-])cc12 | 36.7 | –
CCCCc1ccc(-c2ccc(-c3cc(C(=O)O)c4cc([N+](=O)[O-])ccc4n3)[nH]2)cc1 | 62.5 | –
CCCCc1ccc(-c2ccc(-c3cc(C(=O)O)c4cc(OC)ccc4n3)o2)cc1 | 53.5 | –
CCCCc1ccc(-c2ccc(-c3cc(C(=O)O)c4cc(Br)ccc4n3)o2)cc1 | – | EC50 (BJAB; [13]): 2130 nM; inhibition [2]: Active; inhibition [3]: Active; inhibition [4]: Active; IC50 [5]: 28.7 µM; inhibition [6]: Active
COC(=O)[C@H]1[C@@H](O)[C@@]2(O)c3c(OC)cc(O[C@@H]4O[C@@H]([C@H](O)CO)CO[C@H]4OC)cc3O[C@@]2(c2ccc(OC)cc2)[C@@H]1c1ccccc1 | – | Activity [7]: Active; inhibition (Reticulocyte [8]): Active; inhibition (Reticulocyte [9]): inactive
CCCOc1ccccc1-c1ccc(-c2cc(C(=O)O)c3cc([N+](=O)[O-])ccc3n2)o1 | 45.5 | –
CCCCc1ccc(-c2ccc(-c3cc(C(=O)O)c4cc(C(C)C)ccc4n3)o2)cc1 | 107 | –
CCCCc1ccc(-c2ccc(-c3cc(C(=O)O)c4cc(N)ccc4n3)o2)cc1 | > 150 | EC50 (BJAB; bjab): Not Active
O=C(O)c1cc(-c2ccc(-c3ccc(-c4ccccc4)cc3)o2)nc2ccc([N+](=O)[O-])cc12 | 66.1 | –
CCCCc1ccc(-c2ccc(-c3cc(C(=O)O)c4cc(-c5ccccc5)ccc4n3)o2)cc1 | 124 | –
Nc1ccc(-c2ccc(-c3cc(C(=O)O)c4cc([N+](=O)[O-])ccc4n3)o2)cc1 | > 150 | EC50 (BJAB; bjab): Not Active
CCCCc1ccc(-c2ccc(-c3cc(C(=O)O)c4cc(C)cc(C)c4n3)o2)cc1 | 111 | –
CCCCc1ccc(-c2ccc(-c3cc(C(=O)O)c4cc(C)ccc4n3)o2)cc1 | 105 | –
CCCCc1ccc(-c2ccc(-c3cc(C(=O)O)c4cccc(Br)c4n3)o2)cc1 | 23.8 | –
CCCCc1ccc(-c2cccc(-c3cc(C(=O)O)c4cc([N+](=O)[O-])ccc4n3)n2)cc1 | 85.8 | –
O=C(O)c1cc(-c2ccc(-c3ccccc3)o2)nc2ccc([N+](=O)[O-])cc12 | > 150 | –
Nc1cccc(-c2ccc(-c3cc(C(=O)O)c4cc([N+](=O)[O-])ccc4n3)o2)c1 | > 150 | EC50 (BJAB; bjab): Not Active

Compound | IC50 [1] [µM] | other results
CCCCc1ccc(-c2ccc(-c3cc(C(=O)O)c4cccc(C(F)(F)F)c4n3)o2)cc1 | 26.9 | –
CCCc1ccc(-c2ccc(-c3cc(C(=O)O)c4cc([N+](=O)[O-])ccc4n3)o2)cc1 | 40.9 | –
CCCCc1ccc(-c2ccc(-c3cc(C(=O)O)c4cc(NC(C)=O)ccc4n3)o2)cc1 | 126 | EC50 (BJAB; bjab): Not Active
CC(C)(C)OC(=O)Nc1ccc(-c2ccc(-c3cc(C(=O)O)c4cc([N+](=O)[O-])ccc4n3)o2)cc1 | 140 | –
CCCCc1ccc(-c2ccc(-c3cc(C(=O)O)c4ccc(C(F)(F)F)cc4n3)o2)cc1 | 61 | –
CCCOc1cccc(-c2ccc(-c3cc(C(=O)O)c4cc([N+](=O)[O-])ccc4n3)o2)c1 | 62.1 | –
CCCCc1ccc(-c2ccc(-c3cc(C(=O)O)c4cccc([N+](=O)[O-])c4n3)o2)cc1 | – | EC50 [1]: 27.5 µM
CC(C)(C)OC(=O)Nc1cccc(-c2ccc(-c3cc(C(=O)O)c4cc([N+](=O)[O-])ccc4n3)o2)c1 | 110 | –
C[C@@H]1C[C@@H]([C@H](O)CC2CC(=O)NC(=O)C2)C(=O)[C@@H](C)C1 | – | inhibition (Reticulocyte [10]): Active; inhibition (Reticulocyte [11]): Active
O=C(O)c1cc(-c2ccc(-c3ccc4c(c3)OCO4)o2)nc2ccc([N+](=O)[O-])cc12 | > 150 | –
O=C(O)c1cc(-c2ccc(-c3ccc(Oc4ccccc4)cc3)o2)nc2ccc([N+](=O)[O-])cc12 | 12.7 | –
CCCCc1ccc(-c2ccc(-c3cc(C(=O)OCC)c4cc([N+](=O)[O-])ccc4n3)o2)cc1 | > 150 | EC50 (BJAB; [13]): > 10000 nM
CCCCCc1ccc(-c2ccc(-c3cc(C(=O)O)c4cc([N+](=O)[O-])ccc4n3)o2)cc1 | 8.77 | –
CCCCc1ccc(-c2cccc(-c3cc(C(=O)O)c4cc([N+](=O)[O-])ccc4n3)c2)cc1 | 74.1 | –
CCCCc1ccc(-c2ccc(-c3cc(C(=O)O)c4cc(Cl)ccc4n3)o2)cc1 | 44 | –
CCCCc1ccc(-c2ccc(-c3cc(C(=O)OCC)c4cc(Br)ccc4n3)o2)cc1 | 129 | –
Nc1ncnc2c1ncn2[C@@H]1O[C@H](COP(=O)(O)OP(=O)(O)O)[C@@H](O)[C@H]1O | – | inhibition [12]: Active
CCCCc1ccc(-c2cncc(-c3cc(C(=O)O)c4cc([N+](=O)[O-])ccc4n3)c2)cc1 | > 150 | –
CCCCc1ccc(-c2ccc(-c3cc(C(=O)O)c4cc([N+](=O)[O-])ccc4n3)s2)cc1 | 62.3 | –
CCCCc1ccc(-c2ccc(-c3cc(C(=O)O)c4cc([N+](=O)[O-])ccc4n3)cc2)cc1 | 54.8 | –
CCCCc1ccc(-c2ccc(-c3cc(C(=O)O)c4cc(OC(F)(F)F)ccc4n3)o2)cc1 | > 150 | –
CCCCc1ccc(-c2ccc(-c3cc(C(=O)O)c4cc(CC)ccc4n3)o2)cc1 | 147 | –
CCCCc1ccc(-c2ccc(-c3cc(C(=O)O)c4ccc(F)cc4n3)o2)cc1 | 46.6 | –
CCCCc1ccc(-c2ccc(-c3cc(C(=O)O)c4cc(I)ccc4n3)o2)cc1 | 41.5 | –
CCCCc1ccc(-c2ccc(-c3cc(C(=O)O)c4c(Cl)cccc4n3)o2)cc1 | 135 | –
CCCCc1ccc(-c2ccc(-c3cc(C(=O)O)c4cc(F)ccc4n3)o2)cc1 | 54.1 | –
